Measurements published in US20260015574A1, “METHODS FOR SHORTENING LAG PHASE DURATION IN MICROORGANISMS” (YEDA RESEARCH AND DEVELOPMENT CO. LTD., priority 2022, published 2026).

How the values were obtained:
[1] = system: Phaeobacter inhibens DSM 17395; assay: Growth / lag phase shortening assay of P. inhibens pure cultures with glucose; assay type: cell-based
Description: ASW was adjusted to pH 8 using HCl. If not otherwise stated, the medium was further supplemented with a source of carbon (glucose, 1 mM), nitrogen (NH4Cl, 5 mM), and sulfur (Na2SO4, 33 mM), referred to as ASW+CNS. […] A 96-well Tecan Infinite M Plex plate reader was used for high-resolution monitoring of bacterial growth dynamics at 30° C. An ImageStreamX Flow Imager system (Amnis) was used to characterize bacterial populations during the lag phase (FIG. 6). The growth of bacteria in co-culture with algae was monitored by counting colony forming units (CFU) on ½ YTSS agar plates. The growth of algae was monitored with a CellStream flow cytometer (Merck, Darmstadt, Germany).
To test whether methylated compounds affect the growth of bacteria, the inventors cultivated bacterial pure cultures with glucose as main growth substrate and supplemented the medium with the well-studied methylated compound dimethylsulfoniopropionate (DMSP). DMSP that is naturally produced by microalgae and found in detectable levels in seawater, is known to be metabolized by various bacteria. […] To quantify the lag phase shortening effect, the inventors calculated the Δlag time, which is the time difference between the commence of exponential growth in control cultures compared to treated cultures (FIG. 5B).
To reflect the natural low bacterial abundance in the oligotrophic ocean with low microalgal productivity, the current bacterial growth experiments were routinely initiated with an optical density (OD) of 0.00001. Such low initial ODs challenge the detection of cell divisions that occur prior to reaching an OD of at least 0.001, which is the theoretical limit of detection. To determine the actual length of the lag phase, the inventors analyzed bacterial cultures using imagining flow cytometry.

P. inhibens Δbmt mutant = assay: Growth and lag phase shortening in Δbmt mutant; assay type: cell-based, Phaeobacter inhibens; details: 2 μM DMSP, minimal media with or without 200 μM methionine
Description: For creation of P. inhibens knockout cells, ˜1,000 bp regions upstream and downstream of the gene of interest were amplified by PCR (Phusion High-Fidelity DNA polymerase, Thermo Scientific), using primers that added homologous regions to gentamycin or kanamycin resistance markers. The fragments were assembled and cloned into the TOPOII vector (Invitrogen) using restriction-free cloning (Peleg Y. & Unger T., 2014), generating a knockout (KO) plasmid. P. inhibens electrocompetent cells (300 μl) were transformed with 10 μg of the constructed KO plasmid by a pulse of 1.8 kV (Bio Rad). Cells were selected on ½YTSS agar plates containing 30 μg/ml gentamycin or 150 μg/ml kanamycin. Successful knockouts in single cell clones were verified by PCR and sanger sequencing.

[2] = system: Bacillus subtilis strain 168; assay: Lag phase shortening in B. subtilis; assay type: cell-based; details: 2 μM compound
Description: The bacterial strain Phaeobacter inhibens DSM 17395 was purchased from the German collection of microorganisms and cell cultures (DSMZ, Braunschweig, Germany) and stored at −80° C. with 20% glycerol. Routine cultivation of P. inhibens was conducted at 30° C. in artificial seawater medium (ASW) based on Goyet and Poisson (1989). The ASW medium contained mineral salts (NaCl, 409.41 mM; Na2SO4, 28.22 mM; KCl, 9.08 mM; KBr, 0.82 mM; NaF, 0.07 mM; Na2CO3, 0.20 mM; NaHCO3, 2 mM; MgCl2, 50.66 mM; SrCl2, 0.09 mM), L1 vitamins (thiamine HCl, 100 μg/L; biotin, 0.5 μg/L; vitamin B12, […]), L1 trace elements (Na2EDTA·2H2O, 4.36 mg/L; FeCl3·6H2O, 3.15 mg/L; MnCl2·4H2O, 178.1 μg/L; ZnSO4·7H2O, 23.0 μg/L; CoCl2·6H2O, 11.9 μg/L; CuSO4·5H2O, 2.5 μg/L; Na2MoO4·2H2O, 19.9 μg/L; H2SeO3, 1.29 μg/L; NiSO4·6H2O, 2.63 μg/L; Na3 VO4, 1.84 μg/L; K2CrO4, 1.94 μg/L), and L1 nutrients (NaNO3, 882 μM; NaH2PO4, 36.22 μM). ASW was adjusted to pH 8 using HCl. If not otherwise stated, the medium was further supplemented with a source of carbon (glucose, 1 mM), nitrogen (NH4Cl, 5 mM), and sulfur (Na2SO4, 33 mM), referred to as ASW+CNS. Methylated effector compounds (e.g., donors) were administered at 1 or 2 μM in routine assays, or in higher concentrations as stated. The bacterium Bacillus subtilis strain 168 was cultivated in M9 Medium (Na2HPO4, 6 g/L; KH2PO4, 3 g/L; NaCl, 0.5 g/L; NH4CL, 1 g/L; CaCl2), 100 µM; MgSO4, 1 mM; Thiamine, 5 mg/L; EDTA, 50 mg/L; FcCl3, 4.98 mg/L; ZnCl2, 0.84 mg/L; CuCl2·2H2O, 0.13 mg/L; CoCl2·6H2O, 0.1 mg/L; H3BO3, 0.1 mg/L; MnCl2·4H2O, 0.016 mg/L; pH 7.1) with 20 mM glucose. Other bacterial strains tested for lag phase shortening were isolated from the marine environment (Despotović et al., 2021), and cultivated in ASW+CNS. A 96-well Tecan Infinite M Plex plate reader was used for high-resolution monitoring of bacterial growth dynamics at 30° C. […] The growth of bacteria in co-culture with algae was monitored by counting colony forming units (CFU) on ½ YTSS agar plates. The growth of algae was monitored with a CellStream flow cytometer (Merck, Darmstadt, Germany). […]

[3] = artificial seawater medium, 1 mM glucose, micromolar DMSP

C[S+](C)CCC(=O)[O-] [DMSP, dimethylsulfoniopropionate]
amount of DMSP per cell corresponding to the minimal effective concentration ([1]; 2 nM DMSP per 25,000 cells/mL): 80 amol
lag phase shortening in the presence of TMP ([1]; 2 μM DMSP, culture with TMP supplemented with nucleotides): still elicited lag phase shortening
growth rate [1, 3]: not affected
lag time [1, 3]: the lag time was shortened
lag phase shortening effect under salt stress ([1]; high salt conditions (FIG. 19A)): enhance the lag phase shortening effect
growth of the bacterium ([1]; micromolar concentrations of DMSP, glucose as main growth substrate): stimulate the growth of the bacterium
minimal DMSP concentration that triggered a significant lag phase shortening ([1]; per 25,000 cells/mL (OD 0.00001), glucose as main carbon source): 2 nM
lag phase shortening effect under temperature stress ([1]; temperatures that deviate from the 30° C. optimum (FIG. 19B)): enhance the lag phase shortening effect
lag phase shortening (P. inhibens Δbmt mutant): did not induce lag phase shortening
lag phase shortening [2]: induction of the lag phase shortening
